From patent publication EP0513240B1, “LIQUID HARD SURFACE DETERGENT COMPOSITIONS CONTAINING ZWITTERIONIC DETERGENT SURFACTANT AND MONOETHANOLAMINE AND/OR BETA-AMINOALKANOL” (THE PROCTER & GAMBLE COMPANY, priority 1990, dated 1991)
Marks after values point to notes of the source that are not given here.

Experiment: Solubility of selected diols in 20°C water
Assay type: physicochemical
Conditions: determined via laboratory measurements (values marked *)
Description: A particularly preferred type of solvent for these hard surface cleaner compositions comprises diols having from 6 to 16 carbon atoms in their molecular structure. Preferred diol solvents have a solubility in water of from about 0.1 to about 20 g/100 g of water at 20°C.

SMILES	Solubility
OCC1CCC(CO)CC1 (stereo not shown) [1,4-Cyclohexanedimethanol]	20.0* g/100g H2O
OCC(O)c1ccccc1 (stereo not shown) [Phenyl-1,2-ethanediol]	12.0* g/100g H2O
CC(O)(CO)c1ccccc1 (stereo not shown) [2-Phenyl-1,2-propanediol]	12.0* g/100g H2O
CCCCCCC(O)CO (stereo not shown) [1,2-Octanediol]	1.0* g/100g H2O

Experiment: not given
Conditions: in 20°C water; values from published literature; cited from earlier work

SMILES	Solubility [g/100g H2O]
CC(C)(O)CCC(C)(C)O [2,5-Dimethyl-2,5-hexanediol]	14.3
CC(C)C(O)C(C)(C)CO (stereo not shown) [2,2,4-Trimethyl-1,3-pentanediol]	1.9
CCCC(O)C(CC)CO (stereo not shown) [2-Ethyl-1,3-hexanediol]	4.2
